{"source": "patent EP0431327B1", "about": "“Synthetic vaccine for the specific induction of cytotoxic T-lymphocytes” (HOECHST AKTIENGESELLSCHAFT, priority 1989, dated 1991)", "system": "Influenza-Virus A/PR/8", "assay": "Protection of immunised mice against intranasal influenza virus infection (survival, body weight)", "format": "in vivo, BALB/c-Inzuchtmäuse", "method": "Unter SPF-Bedingungen gezüchtete, 3 Monate alte BALB/c-Inzuchtmäuse wurden intravenös mit 100 µg Pam₃cys-Ser-Ser-[NP 147-158] immunisiert. (100 µg Pam₃Cys-Ser-Ser-[NP 147-158], aufgenommen in 300 µl PBS, 1 min beschallt). Nach 28 Tagen wurden die Mäuse mit 0,2 bzw. 0,4 haemagglutinierenden Einheiten Influenza-Virus A/PR/8 intranasal infiziert. Analog wurden zur Kontrolle Mäuse infiziert, denen 300 µl PBS intravenös appliziert wurde. Der Verlauf der Infektion wurde anhand von täglichen Gewichtskontrollen und der Überlebensrate kontrolliert. 11 von 12 Kontrolltieren, die mit 0,4 haemagglutinierenden Einheiten infiziert wurden, starben nach 11 Tagen an der Virusinfektion, während von den immunisierten Tieren nur 4 von 12 starben.\nEine weitere Kontrollgruppe und eine mit Pam₃Cys-Ser-Ser-[NP 147-158] immunisierte Gruppe wurden mit 0,2 haemagglutinierenden Einheiten Influenza-Virus infiziert. Nach 18 Tagen lebten noch 40 % der Kontrolltiere (4 von 10 Tieren), während 75 % der immunisierten Tiere lebten. Am Tag 18 betrug die Gewichtsdifferenz zwischen immunisierten Tieren und Kontrolltieren 4 g."}
{"substance": "N-Palmitoyl-S-[2,3-(bispalmitoyloxy)-propyl]cysteinyl-seryl-seryl-NP 147-158 [Pam₃Cys-Ser-Ser-[NP 147-158]]", "values": [{"measurement": "Verlauf der Infektion (Gewicht)", "setting": "0,2 haemagglutinating units, after day 18, surviving controls kept losing weight", "result": "langsam von der Infektion erholten"}, {"measurement": "Gewichtsdifferenz zwischen immunisierten Tieren und Kontrolltieren", "setting": "0,2 haemagglutinating units, day 18", "result": 4, "unit": "g"}, {"measurement": "immunisierte Tiere, die an der Virusinfektion starben", "setting": "100 µg i.v. in 300 µl PBS, after 28 days infected intranasally with 0,4 haemagglutinating units, deaths after 11 days, PBS controls 11 von 12", "result": 4, "unit": "von 12"}, {"measurement": "lebende immunisierte Tiere", "setting": "immunised group infected with 0,2 haemagglutinating units, after 18 days, controls 40 %", "result": 75, "unit": "%"}]}
